Measured values: patent US20190166840A1, “SUBSTITUTED PYRAZOLINYL DERIVATIVES, PROCESSES FOR THEIR PREPARATION AND THEIR USE AS HERBICIDES AND/OR PLANT GROWTH REGULATORS” (BAYER CROPSCIENCE AKTIENGESELLSCHAFT, priority 2016, published 2019)

Columns and labels:
photosystem II (PS II) = molecular target: T1, photosystem II (PS II) (Spinacia oleracea, UniProt P69560); assay: Activity determination of photosystem II (PS II) in thylakoid membranes, DCPIP reduction; format: biochemical; settings: spinach thylakoid membranes, DCPIP 120 μM, 10 min at 22° C. with illumination
T1 construct: the chloroplasts were osmotically ruptured and the thylakoid membranes were then obtained by centrifugation; from tissue; host or cells: spinach leaves (thylakoid membrane preparation)
Procedure: Measurement of PS II Activity in Thylakoid Membranes
1. Preparation of the Thylakoid Membranes
Cooled fresh spinach leaves were comminuted and homogenized in 50 mM phosphate buffer, pH 6.8, 10 mM KCl, 0.34 M sucrose (sucrose buffer) (mixer, 1 g of plant material/ml). The homogenate was subsequently filtered through 4 layers of Miracloth and the chloroplasts were obtained by centrifugation: • 10 minutes (min) of centrifugation at 4400×g (4° C.). • The sediment was suspended in 25 ml of sucrose buffer and centrifuged for another 10 min at 4400×g (4° C.). • The sediment was then suspended in 40 ml of 50 mM phosphate buffer, pH 6.8, 10 mM KCl, without sucrose. • In this step, the chloroplasts were osmotically ruptured and the thylakoid membranes were then obtained by centrifugation (10 min, 4400×g, 4° C.). The membrane sediment was finally suspended in about 20 ml of 50 mM phosphate buffer, pH 6.8, 10 mM KCl. • After protein determination and activity determination, the membrane suspension was aliquoted and frozen in liquid nitrogen. The aliquots were stored at −80° C. Under these conditions, the photosystem II preparation is storage-stable for at least three months.
2. Activity Determination of the Photosystem II (PS II)
The electron transfer from PS II to an artificial electronic captor, 2,6-dichlorophenol-indophenol (DCPIP), is measured under the action of light. The concentration of the blue oxidized form of DCPIP can be determined spectraphotometrically at the wavelength l=595 nm. The enzyme-catalyzed reduction of DCPIP results in a colourless leuco form and thus to a decrease of absorption at 595 nm in the reaction batch, which is measured as a function of time.
The activity determination was carried out in microtiter plates (96 wells) in a reaction volume of 200 μl. 155 μl of dilute membrane suspension in 50 mM phosphate buffer, pH 6.8, 10 mM KCl were initially charged. Depending on the activity of the PS II preparation, the dilution was adjusted such that measurement of the decrease in absorption (λ=595 nm) was linear for at least 10 min.
Typical dilution series of the test compounds comprised 10 concentration steps in the range between 10^−9and 10^−5 M.
On each microtiter plate, a known PS II inhibitor, e.g. metribuzin, was used as standard for assessing the quality of the PS II test.
The reaction was initiated by addition of 40 μl DCPIP solution (600 μM in distilled water); the final concentration of DCPIP was 120 μM.
Absorption was measured over a period of 10 min at 22° C. and with illumination. For calculating the active compound concentration at which 50% of the enzyme activity is inhibited (IC50), the relative enzymatic activity (in %) was plotted as a function of the logarithm of the active compound concentration.

Ipomoea purpurea = assay: Post-emergence herbicidal action, PHBPU; format: in vivo; settings: one-leaf stage, application rate 1280 g/ha, scored visually after about 3 weeks
Procedure: (§1) Post-Emergence Herbicidal Activity Seeds of mono- and dicotyledonous weed plants and crop plants were placed in sandy loam in wood fibre pots, covered with soil and then cultivated in a greenhouse under good growth conditions. Two to 3 weeks after sowing, the test plants were treated at the one-leaf stage, with the formulated compounds of the general formula (I) according to the invention being sprayed as an aqueous suspension or emulsion at an application rate of 600 l of water/ha (converted) with addition of 0.2% wetting agent, onto the green parts of the plants. After the test plants had been left to stand in the greenhouse for about 3 weeks under optimum growth conditions, the activity of the preparations was scored visually in percent in comparison to untreated controls. For example, 100% activity=the plants have died, 50% herbicidal activity or damage=plants reduced to 50% or plant material reduced by 50%, 0% activity=like control plants. […] Here, the herbicidal action of the compounds of the general formula (I) according to the invention was examined for the following harmful plants: PHBPU=Ipomoea purpurea The respective herbicidal action was in each case determined at the same point in time after application of the formulation in question, i.e. damage of the harmful plant in question in %. […]

[1] = system: Polygonum convolvulus (=Fallopia convolvulus); assay: Post-emergence herbicidal action, POLCO; format: in vivo; settings: one-leaf stage, application rate 1280 g/ha, scored visually after about 3 weeks
Procedure: as §1, with “POLCO=Polygonum convolvulus (=Fallopia convolvulus)” for “PHBPU=Ipomoea purpurea”

Viola tricolor = assay: Post-emergence herbicidal action, VIOTR; format: in vivo; settings: one-leaf stage, application rate 1280 g/ha, scored visually after about 3 weeks
Procedure: as §1, with “VIOTR=Viola tricolor” for “PHBPU=Ipomoea purpurea”

Setaria viridis = assay: Post-emergence herbicidal action, SETVI; format: in vivo; settings: one-leaf stage, application rate 1280 g/ha, scored visually after about 3 weeks
Procedure: as §1, with “SETVI=Setaria viridis” for “PHBPU=Ipomoea purpurea”

CC1=C(C)C(O)N(C2=NN(Cc3ccccc3)C(C)(C)C2)C1=O (stereo not drawn) [I.2-217]
pI50 (photosystem II (PS II)): 5.4

CC1=C(C)C(O)N(C2=NN(c3ccccc3)C(C)C2)C1=O (stereo not drawn) [I.2-321]
IC50 (photosystem II (PS II); read-out: pI50 (converted)): 7.94 µM

CC1=C(C)C(O)N(C2=NN(c3ccccn3)C(C)C2)C1=O (stereo not drawn) [I.2-432]
Post-emergence herbicidal action PHBPU, damage of the harmful plant (Ipomoea purpurea): 0%
Post-emergence herbicidal action POLCO, damage of the harmful plant [1]: 0%
Post-emergence herbicidal action VIOTR, damage of the harmful plant (Viola tricolor): 80%
Post-emergence herbicidal action SETVI, damage of the harmful plant (Setaria viridis): 80%

CC1=C(Cl)C(=O)N(C2=NN(c3ccccc3)C(C)C2)C1O (stereo not drawn) [I.3-321]
pI50 (photosystem II (PS II)): 5.4

CC1=C(Cl)C(=O)N(C2=NN(C)C(c3ccc(Cl)cc3)C2)C1O (stereo not drawn) [I.3-1351]
pI50 (photosystem II (PS II)): 5.5

CC1=C(Br)C(=O)N(C2=NN(c3ccccc3)CC2)C1O (stereo not drawn) [I.8-621]
Post-emergence herbicidal action PHBPU, damage of the harmful plant (Ipomoea purpurea): 90%
Post-emergence herbicidal action POLCO, damage of the harmful plant [1]: 90%
Post-emergence herbicidal action VIOTR, damage of the harmful plant (Viola tricolor): 80%
pI50 (photosystem II (PS II)): 5.3
Post-emergence herbicidal action SETVI, damage of the harmful plant (Setaria viridis): 60%

CC1=C(Br)C(=O)N(C2=NN(C)C(c3ccccc3)C2)C1O (stereo not drawn) [I.8-1126]
pI50 (photosystem II (PS II)): 5.1

CC1=C(Br)C(=O)N(C2=NN(C)C(c3ccc(Cl)cc3)C2)C1O (stereo not drawn) [I.8-1351]
pI50 (photosystem II (PS II)): 5.7
